Experiment [1] has as its target T1, Serine/threonine-protein kinase TAO1 (Homo sapiens) (UniProt Q7L7X3).
T1 sequence (whole entry): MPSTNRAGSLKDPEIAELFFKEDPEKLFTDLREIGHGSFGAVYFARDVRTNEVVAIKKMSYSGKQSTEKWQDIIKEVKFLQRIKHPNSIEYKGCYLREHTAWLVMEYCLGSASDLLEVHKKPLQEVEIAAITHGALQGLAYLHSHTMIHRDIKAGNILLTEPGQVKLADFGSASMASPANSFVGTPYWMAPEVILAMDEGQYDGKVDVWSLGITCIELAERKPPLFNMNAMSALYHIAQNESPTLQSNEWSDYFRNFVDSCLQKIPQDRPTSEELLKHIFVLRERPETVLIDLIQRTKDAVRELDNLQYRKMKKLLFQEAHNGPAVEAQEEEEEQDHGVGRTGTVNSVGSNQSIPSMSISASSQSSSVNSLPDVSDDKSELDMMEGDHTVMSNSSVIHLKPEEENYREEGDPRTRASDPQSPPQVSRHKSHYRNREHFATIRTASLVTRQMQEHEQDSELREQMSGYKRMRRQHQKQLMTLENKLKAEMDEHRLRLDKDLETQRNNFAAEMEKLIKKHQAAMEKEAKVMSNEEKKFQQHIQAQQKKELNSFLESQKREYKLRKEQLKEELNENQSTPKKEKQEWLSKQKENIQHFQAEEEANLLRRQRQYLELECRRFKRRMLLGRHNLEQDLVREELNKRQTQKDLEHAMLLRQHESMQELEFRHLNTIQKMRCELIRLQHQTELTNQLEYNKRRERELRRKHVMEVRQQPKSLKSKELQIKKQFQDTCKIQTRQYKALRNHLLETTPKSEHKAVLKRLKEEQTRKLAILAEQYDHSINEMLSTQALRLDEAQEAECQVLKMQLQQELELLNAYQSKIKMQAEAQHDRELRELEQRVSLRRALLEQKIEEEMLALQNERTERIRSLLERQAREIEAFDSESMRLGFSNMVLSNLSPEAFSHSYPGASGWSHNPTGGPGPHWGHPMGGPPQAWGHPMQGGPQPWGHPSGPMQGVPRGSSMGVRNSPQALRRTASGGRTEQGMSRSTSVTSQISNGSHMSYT
In words: Selectivity interaction (Ambit KINOMEscan and KiNATiv profiling in Jurkat cells) EUB0000090b TAOK1. It is filed as cell-based. The note with it: at 1 µM.

The target in experiment [2] is Serine/threonine-protein kinase 32A (Homo sapiens) (UniProt Q8WU08). Particulars: at 10 µM.
Chain of Serine/threonine-protein kinase 32A (Homo sapiens) (Q8WU08 whole entry): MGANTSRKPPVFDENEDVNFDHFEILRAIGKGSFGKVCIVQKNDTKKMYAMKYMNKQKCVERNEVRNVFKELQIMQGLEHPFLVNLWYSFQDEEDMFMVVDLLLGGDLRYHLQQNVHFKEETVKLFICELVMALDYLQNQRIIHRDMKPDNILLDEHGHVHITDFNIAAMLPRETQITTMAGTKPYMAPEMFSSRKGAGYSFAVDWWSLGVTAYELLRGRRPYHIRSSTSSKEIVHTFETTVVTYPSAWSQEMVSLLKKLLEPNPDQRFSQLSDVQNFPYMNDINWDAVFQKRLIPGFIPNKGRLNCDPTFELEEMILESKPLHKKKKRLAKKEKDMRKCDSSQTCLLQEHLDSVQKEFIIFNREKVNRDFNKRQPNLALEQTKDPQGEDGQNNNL
Experiment [3] deals with Homeodomain-interacting protein kinase 1 (Homo sapiens, UniProt Q86Z02). The experiment in a line: Selectivity interaction (KinomeScan (DiscoverX)) EUB0000229b HIPK1. Particulars: at 10 µM.
Chain of Homeodomain-interacting protein kinase 1 (Q86Z02 whole entry, looked up, canonical isoform): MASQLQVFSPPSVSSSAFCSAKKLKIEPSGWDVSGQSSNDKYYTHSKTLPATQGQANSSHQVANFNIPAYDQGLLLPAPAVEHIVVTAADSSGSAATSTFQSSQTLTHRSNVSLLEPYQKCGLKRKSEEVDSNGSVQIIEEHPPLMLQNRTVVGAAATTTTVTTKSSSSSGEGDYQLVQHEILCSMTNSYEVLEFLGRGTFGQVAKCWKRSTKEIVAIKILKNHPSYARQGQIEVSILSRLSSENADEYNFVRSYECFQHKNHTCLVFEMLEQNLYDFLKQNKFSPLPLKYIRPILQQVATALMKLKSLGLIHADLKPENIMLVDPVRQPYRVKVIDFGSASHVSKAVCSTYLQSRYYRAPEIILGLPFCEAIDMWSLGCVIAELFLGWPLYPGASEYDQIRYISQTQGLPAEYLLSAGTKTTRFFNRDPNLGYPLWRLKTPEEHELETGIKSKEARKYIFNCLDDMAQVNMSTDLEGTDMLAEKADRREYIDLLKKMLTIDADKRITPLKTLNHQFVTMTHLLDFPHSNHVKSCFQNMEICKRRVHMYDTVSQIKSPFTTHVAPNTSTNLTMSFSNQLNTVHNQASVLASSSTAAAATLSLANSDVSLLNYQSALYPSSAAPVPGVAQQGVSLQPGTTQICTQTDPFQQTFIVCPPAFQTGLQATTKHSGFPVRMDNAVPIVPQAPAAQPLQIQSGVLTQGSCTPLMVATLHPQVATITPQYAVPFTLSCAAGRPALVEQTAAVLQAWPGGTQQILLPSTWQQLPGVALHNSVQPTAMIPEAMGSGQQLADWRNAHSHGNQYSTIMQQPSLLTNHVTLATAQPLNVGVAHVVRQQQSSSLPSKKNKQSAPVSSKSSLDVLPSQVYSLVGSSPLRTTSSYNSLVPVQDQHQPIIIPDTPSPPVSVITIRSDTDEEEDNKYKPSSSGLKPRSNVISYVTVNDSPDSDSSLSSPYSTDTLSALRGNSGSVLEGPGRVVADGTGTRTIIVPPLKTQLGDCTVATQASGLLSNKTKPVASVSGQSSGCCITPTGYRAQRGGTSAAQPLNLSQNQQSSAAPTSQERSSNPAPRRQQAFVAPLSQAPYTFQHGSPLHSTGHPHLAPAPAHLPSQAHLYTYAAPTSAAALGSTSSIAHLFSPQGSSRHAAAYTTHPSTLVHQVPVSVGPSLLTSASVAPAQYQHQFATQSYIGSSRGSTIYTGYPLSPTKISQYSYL
In experiment [4] the target is Phosphatidylinositol 4,5-bisphosphate 3-kinase catalytic subunit alpha isoform (Homo sapiens) (UniProt P42336). In words: (§1) Selectivity interaction (KinomeScan (DiscoverX)) EUB0001079a PIK3CA. The note with it: at 1 µM.
Chain of Phosphatidylinositol 4,5-bisphosphate 3-kinase catalytic subunit alpha isoform (Homo sapiens) (P42336 whole entry, canonical isoform): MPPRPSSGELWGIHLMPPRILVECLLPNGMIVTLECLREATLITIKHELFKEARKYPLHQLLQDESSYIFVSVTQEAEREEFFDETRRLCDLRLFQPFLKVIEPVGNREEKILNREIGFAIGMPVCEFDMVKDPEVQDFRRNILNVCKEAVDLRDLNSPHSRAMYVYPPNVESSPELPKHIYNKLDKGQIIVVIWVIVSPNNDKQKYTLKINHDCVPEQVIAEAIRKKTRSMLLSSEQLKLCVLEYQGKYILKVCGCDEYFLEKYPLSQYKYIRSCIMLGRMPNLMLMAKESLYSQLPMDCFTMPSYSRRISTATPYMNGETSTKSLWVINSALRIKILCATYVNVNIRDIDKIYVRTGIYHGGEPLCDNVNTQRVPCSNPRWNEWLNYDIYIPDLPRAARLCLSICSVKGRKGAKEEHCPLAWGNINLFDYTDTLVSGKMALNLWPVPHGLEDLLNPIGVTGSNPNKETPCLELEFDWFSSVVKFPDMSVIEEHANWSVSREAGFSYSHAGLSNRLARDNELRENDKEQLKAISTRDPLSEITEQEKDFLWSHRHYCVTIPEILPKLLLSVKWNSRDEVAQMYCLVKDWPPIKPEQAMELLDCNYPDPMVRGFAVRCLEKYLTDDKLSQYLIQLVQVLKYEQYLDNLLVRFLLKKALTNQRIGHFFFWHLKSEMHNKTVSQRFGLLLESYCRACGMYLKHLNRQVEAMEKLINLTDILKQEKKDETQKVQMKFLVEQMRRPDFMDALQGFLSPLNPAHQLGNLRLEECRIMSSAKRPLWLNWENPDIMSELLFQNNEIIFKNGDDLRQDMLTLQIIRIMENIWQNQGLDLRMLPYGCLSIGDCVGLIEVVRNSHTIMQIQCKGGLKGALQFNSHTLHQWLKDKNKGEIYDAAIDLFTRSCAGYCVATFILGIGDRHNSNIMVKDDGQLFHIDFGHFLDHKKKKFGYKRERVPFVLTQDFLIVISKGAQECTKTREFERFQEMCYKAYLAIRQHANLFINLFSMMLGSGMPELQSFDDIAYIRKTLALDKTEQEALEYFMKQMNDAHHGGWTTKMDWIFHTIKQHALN
Experiment [5] relates to Phosphatidylinositol 4,5-bisphosphate 3-kinase catalytic subunit alpha isoform (Homo sapiens), P42336 [Q546K]. Described as §1. The note with it: at 1 µM.
Chain of Phosphatidylinositol 4,5-bisphosphate 3-kinase catalytic subunit alpha isoform (Homo sapiens), P42336 [Q546K] (P42336 whole entry Q546K, canonical isoform): as the sequence (P42336 whole entry, canonical isoform) above, with Q546K counted along it
Experiment [6] has as its target T2, Ephrin type-B receptor 4 (Homo sapiens) (UniProt P54760).
T2 sequence (whole entry): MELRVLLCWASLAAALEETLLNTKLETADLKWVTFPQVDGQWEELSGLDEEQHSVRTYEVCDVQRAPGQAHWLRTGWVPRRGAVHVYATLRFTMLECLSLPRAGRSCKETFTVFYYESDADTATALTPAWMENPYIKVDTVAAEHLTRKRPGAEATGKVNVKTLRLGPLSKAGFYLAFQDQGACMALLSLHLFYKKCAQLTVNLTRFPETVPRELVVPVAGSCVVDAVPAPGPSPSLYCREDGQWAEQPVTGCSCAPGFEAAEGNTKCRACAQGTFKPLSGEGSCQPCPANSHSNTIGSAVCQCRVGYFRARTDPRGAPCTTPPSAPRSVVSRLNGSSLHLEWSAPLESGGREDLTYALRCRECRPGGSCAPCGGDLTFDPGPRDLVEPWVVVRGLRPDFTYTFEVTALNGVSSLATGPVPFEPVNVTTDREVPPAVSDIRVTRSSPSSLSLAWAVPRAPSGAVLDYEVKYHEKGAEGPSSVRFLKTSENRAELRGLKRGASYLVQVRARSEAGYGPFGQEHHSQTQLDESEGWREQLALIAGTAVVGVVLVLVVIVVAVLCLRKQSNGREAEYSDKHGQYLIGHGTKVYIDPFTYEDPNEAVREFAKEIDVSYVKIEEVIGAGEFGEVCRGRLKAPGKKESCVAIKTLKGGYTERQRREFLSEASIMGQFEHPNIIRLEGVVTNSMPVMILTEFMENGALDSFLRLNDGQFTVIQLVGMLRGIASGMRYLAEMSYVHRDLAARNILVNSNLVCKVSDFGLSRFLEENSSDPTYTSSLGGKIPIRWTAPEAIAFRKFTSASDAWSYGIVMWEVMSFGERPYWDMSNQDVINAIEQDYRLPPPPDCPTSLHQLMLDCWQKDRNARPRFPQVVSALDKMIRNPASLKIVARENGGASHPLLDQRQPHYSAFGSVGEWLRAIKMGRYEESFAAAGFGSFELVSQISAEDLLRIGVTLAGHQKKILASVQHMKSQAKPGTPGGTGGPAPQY
The experiment in a line: Selectivity interaction (KinomeScan (DiscoverX)) EUB0001619a EPHB4. Particulars: at 1 µM.

For experiment [7], the target named is Tyrosine-protein kinase ABL1 (Homo sapiens, UniProt P00519). The experiment in a line: Selectivity interaction (Kinase panel (33PanQinase(R) Activity Assay)) EUB0000877a ABL1.
Chain of Tyrosine-protein kinase ABL1 (P00519 whole entry, the tested form may be a part): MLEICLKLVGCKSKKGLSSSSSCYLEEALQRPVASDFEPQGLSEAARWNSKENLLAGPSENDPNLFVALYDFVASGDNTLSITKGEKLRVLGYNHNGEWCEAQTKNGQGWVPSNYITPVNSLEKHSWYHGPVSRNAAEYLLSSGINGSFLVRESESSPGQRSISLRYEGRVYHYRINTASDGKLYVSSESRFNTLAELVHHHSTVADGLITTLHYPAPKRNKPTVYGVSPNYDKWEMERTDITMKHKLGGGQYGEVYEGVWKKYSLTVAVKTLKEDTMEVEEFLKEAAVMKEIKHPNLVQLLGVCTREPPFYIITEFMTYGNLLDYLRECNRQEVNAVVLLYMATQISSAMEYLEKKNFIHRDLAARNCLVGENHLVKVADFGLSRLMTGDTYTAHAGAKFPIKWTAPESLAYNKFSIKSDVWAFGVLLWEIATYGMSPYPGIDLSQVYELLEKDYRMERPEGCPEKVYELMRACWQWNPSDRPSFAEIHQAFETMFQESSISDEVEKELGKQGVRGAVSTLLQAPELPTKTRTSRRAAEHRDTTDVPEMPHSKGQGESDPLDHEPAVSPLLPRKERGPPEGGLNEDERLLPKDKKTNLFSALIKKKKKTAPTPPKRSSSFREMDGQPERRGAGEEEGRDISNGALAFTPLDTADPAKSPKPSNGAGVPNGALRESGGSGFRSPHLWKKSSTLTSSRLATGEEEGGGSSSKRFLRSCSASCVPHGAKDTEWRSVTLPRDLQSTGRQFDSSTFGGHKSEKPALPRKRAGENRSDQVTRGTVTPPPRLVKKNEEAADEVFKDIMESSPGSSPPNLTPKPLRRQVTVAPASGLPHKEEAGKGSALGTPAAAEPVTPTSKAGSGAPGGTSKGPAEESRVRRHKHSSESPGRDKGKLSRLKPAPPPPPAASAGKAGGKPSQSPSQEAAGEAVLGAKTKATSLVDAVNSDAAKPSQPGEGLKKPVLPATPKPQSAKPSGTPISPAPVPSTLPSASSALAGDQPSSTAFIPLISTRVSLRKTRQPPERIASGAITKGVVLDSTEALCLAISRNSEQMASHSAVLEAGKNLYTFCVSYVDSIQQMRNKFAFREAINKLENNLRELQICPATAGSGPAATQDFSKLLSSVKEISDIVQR
For experiment [8], the target named is LIM domain kinase 2 (Homo sapiens) (UniProt P53671). In words: Selectivity interaction (ProQinase) EUB0000171b LIMK2.
Chain of LIM domain kinase 2 (Homo sapiens) (P53671 whole entry, looked up, the tested form may be a part): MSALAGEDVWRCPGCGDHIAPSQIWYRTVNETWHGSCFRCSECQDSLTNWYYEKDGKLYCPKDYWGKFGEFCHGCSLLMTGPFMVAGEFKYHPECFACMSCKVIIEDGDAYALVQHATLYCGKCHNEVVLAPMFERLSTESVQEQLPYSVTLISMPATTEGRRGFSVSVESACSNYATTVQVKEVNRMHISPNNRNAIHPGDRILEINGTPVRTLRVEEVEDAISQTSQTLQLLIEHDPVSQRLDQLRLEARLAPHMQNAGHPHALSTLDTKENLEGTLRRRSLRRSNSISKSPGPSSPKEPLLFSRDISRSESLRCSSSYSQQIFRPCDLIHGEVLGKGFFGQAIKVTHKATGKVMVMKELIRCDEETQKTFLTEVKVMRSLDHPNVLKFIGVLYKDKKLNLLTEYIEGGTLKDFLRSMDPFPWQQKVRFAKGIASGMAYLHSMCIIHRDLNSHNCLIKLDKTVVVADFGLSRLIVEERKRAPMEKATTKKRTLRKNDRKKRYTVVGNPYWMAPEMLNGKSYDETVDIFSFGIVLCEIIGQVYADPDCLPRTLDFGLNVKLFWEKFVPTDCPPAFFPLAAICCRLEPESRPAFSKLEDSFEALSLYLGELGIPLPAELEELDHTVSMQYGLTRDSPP

pIC50: −log10 of the molar value.

On to `CN(C)C/C=C/C(=O)Nc1ccc(C(=O)N2CCCC(Nc3ncc(Cl)c(-c4c[nH]c5ccccc45)n3)C2)cc1` (centres undefined), for which the % of control in experiment [1] was determined as 93%.
Turning to `Cc1cc([C@@H](C)Nc2ccccc2C(=O)O)c2nc(N3CCOCC3)cc(=O)n2c1` [AZD-6482], in experiment [2], the % of control was 89%.
As for `COc1cc(N(C)c2ccnc3ccc(C(F)(F)F)cc23)cc(OC)c1OC`, the % binding in experiment [3] amounted to 77%.
As to `Nc1cnc(N2CCc3cc(S(=O)(=O)Nc4c(F)cc(Cl)cc4F)cc(N4CCCC4=O)c32)nc1` [TP-020n], the % of control in experiment [4] worked out at 76%; in experiment [5] it was 78%.
In experiment [6], `N#Cc1cccc(-c2c[nH]c3ncnc(N4CCOCC4)c23)c1` came in with a % of control of 100%.
Turning to `CCC(=O)N1CC[C@H](Nc2ncnc3c2CN(c2cnc(OC)c(C(F)(F)F)c2)CC3)C1` [LENIOLISIB], the pIC50 in experiment [7] was less than 5.00.
`C=CC(=O)Nc1cccc(C(=O)Nc2ccc(Nc3cc(-c4[nH]c(SC)nc4C)ccn3)cc2)c1`: the % of control in experiment [8] (at 1 µM) amounted to 90%; in experiment [8] (at 5 µM), 80%.

A word on the pIC50: it is −log10 of the IC50, conventionally taken in molar units.

These data come from ChEMBL document CHEMBL5465560, “Selectivity Literature for EUbOPEN Chemogenomic Library” (2024).
